Source: PubChem BioAssay AID2305 (GlaxoSmithKline (GSK), 2010)

System: P. falciparum 3D7 growth, pLDH absorbance
Assay: P. falciparum 3D7 growth inhibition, dose response, strain 3D7 (AID 2305)

Point of comparison: `Cc1cc(N(C)CCN(C)C)nc(Nc2ccc(Br)cc2)n1`, IC50 800 nM. Against it:
- O=C(Nc1cccc(OCCN2CCCC2)c1)Nc1ccc(Cl)c(Cl)c1 — within 1.5-fold, 770 nM
- CC(C)COc1ccc(Cl)cc1Cc1nc(-c2nc3nc(N4CCN(C)CC4)ccc3[nH]2)cs1 — within 1.5-fold, 750 nM
- CC(=O)Nc1ccc(C(=O)Nc2cccc(-c3ccc(-c4nc5ccc(C(F)(F)F)cc5[nH]4)s3)c2)cn1 — 6.2-fold lower, 130 nM
- COc1ccc(-c2ccc(NC(=O)c3cccc(C#N)c3)cc2)cc1CN1CCC(O)CC1 — within 1.5-fold, 820 nM
- CN(C)C[C@H](O)[C@@H](c1ccccc1)c1ccc(Cl)cc1 — 16-fold lower, 50 nM
- COc1ccc(-c2cccc(NC(=O)c3ccc(F)cc3)c2)cc1CN1CCCN(C)CC1 — within 1.5-fold, 830 nM
- CC(C)c1ccc(OCC(O)CN(CCN2CCOCC2)C(=O)Nc2ccc(Br)cc2)cc1 (stereo not drawn) — within 1.5-fold, 720 nM
- OCCN1CCN(Cc2ccc(-c3ccc(-c4nc5ccc(C(F)(F)F)cc5[nH]4)s3)cc2)CC1 — 2.1-fold lower, 380 nM
- COc1ccc(CNC2CCN(C)CC2)cc1-c1ccc(S(=O)(=O)NCc2ccccc2)s1 — 3.5-fold lower, 230 nM
- CS(=O)(=O)c1cccc(-c2cnc3[nH]cc(-c4ccc(CCC(=O)O)cc4)c3c2)c1 — within 1.5-fold, 630 nM
- CN1CCN(c2ccc(Nc3c4ccccc4nc4ccccc34)cc2)CC1 — within 1.5-fold, 640 nM
- Oc1cc(Nc2ccnc3cc(-c4cccc(CN5CCCCC5)c4)ccc23)c(F)cc1Cl — 8-fold lower, 100 nM
- CN1CCN(c2cc3c(cc2Cl)CCN3C(=O)Cc2ccc(Cl)c(NC(=O)Nc3cccc([N+](=O)[O-])c3)c2)CC1 — within 1.5-fold, 720 nM
- CC(C)c1ccc(OCC(O)CN(C)C(C)C(O)c2ccccc2)c(Br)c1 (stereo not drawn) — within 1.5-fold, 810 nM
- COc1ccc(CNCCc2cccs2)cc1-c1cccc(S(=O)(=O)NCCN2CCCC2)c1 — within 1.5-fold, 880 nM
- CC(C)CCNC(=O)C1Cc2c([nH]c3cc(Br)ccc23)C2(CCN(CCc3ccccc3)CC2)N1 (stereo not drawn) — within 1.5-fold, 910 nM
- CCOc1ccc2nc(C)cc(NN=Cc3ccccc3F)c2c1 — within 1.5-fold, 740 nM
- NC(N)=NC(=O)Nc1cc(Br)c(Cl)c(Br)c1 — within 1.5-fold, 770 nM
- CCNc1cc(C)nc(Nc2ccc(C)cc2)n1 — within 1.5-fold, 730 nM
- COc1ccc2nccc([C@@H](O)CN3CCC(NCc4ccc5c(c4)sc(=O)n5C)CC3)c2c1 — 3.1-fold lower, 260 nM
- Cc1cc(CN2CC[C@H](NC(=O)c3ccc(Cl)c(Cl)c3)C2)ccc1OC1CCN(C)C1 (stereo partly drawn) — within 1.5-fold, 950 nM
- CCN(CC)Cc1ccc2c(=O)cc(CCc3cccc(F)c3F)n(CC(=O)N(Cc3ccc(-c4ccc(C(F)(F)F)cc4)cc3)C(C)C)c2c1 — within 1.5-fold, 780 nM
- N=C(N)c1ccc(OCCCCCOc2ccc(C(=N)N)cc2)cc1 — 5.7-fold lower, 140 nM
- FC(F)(F)c1ccc2nc(-c3cccc(-c4cccc(CNCC5CCCO5)c4)c3)[nH]c2c1 (stereo not drawn) — 1.9-fold lower, 420 nM
- CCc1sc(-c2cc(Cl)ccc2OC)nc1C(=O)NCCN1CCCCC1 — within 1.5-fold, 940 nM
- CC(=O)Oc1c(C2CCN(CCCCNC(=O)c3ccc(NC(=O)c4ccc(Cl)cc4)cc3)CC2)ccc2c1CCCC2 — within 1.5-fold, 760 nM
- CN1CCN(CCCN(Cc2cccc(-c3ccc(CNCCc4ccccc4)cc3)c2)C(=O)c2cccs2)CC1 — within 1.5-fold, 720 nM
- S=C(NCCCCCN1CCC(c2c[nH]c3ccccc23)CC1)Nc1cccc(I)c1 — within 1.5-fold, 840 nM
- COc1ccc(-c2cnc3ccc(NCc4ccc(S(N)(=O)=O)cc4)nn23)cc1 — the same, 800 nM
- CS(=O)(=O)c1ccccc1CNC(=O)c1ccc(-c2ccc(-c3nc4ccc(C(F)(F)F)cc4[nH]3)s2)cc1 — 3.3-fold lower, 240 nM
- COc1cc(Br)c(S(=O)(=O)n2cc(CN3CCC(N)CC3)c3cc(Cl)ccc32)cc1OC — within 1.5-fold, 990 nM
- CN1CCN(Cc2ccc(-c3ccc4c(Nc5cc(O)c(F)cc5Cl)ccnc4c3)o2)CC1 — 6.2-fold lower, 130 nM
- CN(C)CCOC(=O)C1(O)CCC2CC1C2(C)C (stereo not drawn) — within 1.5-fold, 980 nM
- O=C(N[C@H]1CCN(Cc2ccc(OCCCN3CCCCC3)cc2)C1)c1cc(Cl)cc(Cl)c1 — within 1.5-fold, 620 nM
- Cc1ccc(F)cc1S(=O)(=O)Nc1ccc(CCN2CCC(N3CCCCC3)CC2)cc1 — within 1.5-fold, 720 nM
- CC(C)N1CCN(CCCCNc2c3ccccc3nc3ccccc23)CC1 — within 1.5-fold, 540 nM
- NC1CCN(Cc2ccc(-c3cccc(-c4nc5ccc(F)cc5[nH]4)c3)cc2)C1 (stereo not drawn) — within 1.5-fold, 760 nM
- COc1ccccc1NC(=O)Nc1ccc(-c2ccc(-c3nc4ccc(C(F)(F)F)cc4[nH]3)cc2)cc1 — within 1.5-fold, 540 nM
- COc1ccc2c(c1)OC(C)(C)CC2=NOS(=O)(=O)c1ccc(C)cc1 — 3.8-fold lower, 210 nM
- O=C(/C=C/c1ccc(Cl)c(Cl)c1)NCCCCCN1CCC(NC(=O)Nc2cc(F)cc(F)c2)CC1 — within 1.5-fold, 790 nM
- COc1ccc(Cl)cc1-c1nc(C(=O)NCCN2CCCCC2)c(C)s1 — within 1.5-fold, 940 nM
- COc1cc(Cc2cnc(N)nc2N)cc(OCCCCC2SC(=O)NC2=O)c1OC (stereo not drawn) — 27-fold lower, 30 nM
- O=C(Nc1cccc(-c2ccc(-c3nc4ccc(F)cc4[nH]3)cc2)c1)c1cccnc1 — within 1.5-fold, 610 nM
- Cc1cc(N2CCC(NS(=O)(=O)c3ccc(F)cc3)CC2)nc(Nc2cccc(C#N)c2)n1 — within 1.5-fold, 650 nM
- FC(F)(F)c1ccc(CSc2ccc3nnc(-c4ccccn4)n3n2)cc1 — within 1.5-fold, 820 nM
- Cc1ccc(Cn2ncc(NC3CCNCC3)c(Cl)c2=O)cc1NC(=O)Nc1ccc(-c2ccccc2)cc1 — within 1.5-fold, 660 nM
- S=C(Nc1cccc(Cl)c1)NC1CCN(c2ccnc3cc(Cl)ccc23)C1 (stereo not drawn) — 5.3-fold lower, 150 nM
- COc1ccc2nc(N3CCN(C(=O)OC(C)(C)C)CC3)nc(NCCCc3ccccc3)c2c1 — within 1.5-fold, 690 nM
- O=[N+]([O-])c1cccc(CNCC2CCN(Cc3ccc(-c4ccccc4)cc3)CC2)c1 — 3.2-fold lower, 250 nM
- O=C(/C=C/c1ccc(F)cc1)NC1CCC(CCN2CCCN(c3ccc(C(F)(F)F)cn3)CC2)CC1 (stereo not drawn) — within 1.5-fold, 1080 nM
- CN1CCC(COC(=O)C(O)(c2ccccc2)c2ccccc2)C1 (stereo not drawn) — within 1.5-fold, 1000 nM
- Cc1nc(N)nc(N)c1CCCOc1ccccc1Br — 1.9-fold lower, 420 nM
- CC=CC1CCNC(C(O)c2ccnc3ccc(OC)cc23)C1 (stereo not drawn) — within 1.5-fold, 1090 nM
- COc1cc2nc(NCCc3ccccc3)nc(NCc3cnn(C)c3C)c2cc1OC — within 1.5-fold, 710 nM
- CN1CCN(Cc2cccc(-c3ccc4c(Nc5ccc(Oc6ccccc6)cc5)ccnc4c3)c2)CC1 — 3.5-fold lower, 230 nM
- CCOC(=O)c1ccc(N2CCN(c3cc(C)ccc3C)CC2)c(NC(=O)Nc2ccc(Cl)c(Cl)c2)c1 — within 1.5-fold, 710 nM
- O=C(OCC1CCN(Cc2ccccc2)C1)c1ccc(Cl)cc1 (stereo not drawn) — within 1.5-fold, 680 nM
- CC(C)(C)NCc1cc(Nc2ccnc3cc(Cl)ccc23)ccc1F — 27-fold lower, 30 nM
- CCc1cccc2c(C#N)cn(CC(=O)Nc3ccc(OC)cc3)c12 — within 1.5-fold, 770 nM
- CC(CN(C)C)C(=O)Nc1cccc(-c2ccc(-c3nc4ccc(C(F)(F)F)cc4[nH]3)cc2)c1 (stereo not drawn) — 3.2-fold lower, 250 nM
- Cn1nc(-c2ccc(S(=O)(=O)N3CCC(CN4CCC(c5c[nH]c6ccccc56)CC4)CC3)s2)cc1C(F)(F)F — within 1.5-fold, 1090 nM
- COc1ccc(Nc2nccc(NCC(O)c3cccc(C(F)(F)F)c3)n2)cc1 (stereo not drawn) — within 1.5-fold, 890 nM
- FC(F)(F)c1cccc(CNCCCCCNCc2ccc(Cl)cc2)c1 — within 1.5-fold, 1030 nM
- O=C(Cn1c(CCc2cccc(F)c2F)cc(=O)c2cccnc21)N(CCN1CCCC1)Cc1ccc(-c2ccc(C(F)(F)F)cc2)cc1 — within 1.5-fold, 890 nM
- COc1ccc(CCN(Cc2cccs2)C(=O)c2cc3sccc3n2C)cc1OC — 2.3-fold lower, 350 nM
- CC(C)(CNCc1ccc(C(F)(F)F)cc1)c1nc(-c2ccc(Cl)c(O)c2)c(-c2ccncc2)[nH]1 — within 1.5-fold, 730 nM
- O[C@H]1[C@H](OCc2ccc(-c3ccccc3)cc2)CC[C@@H]1N1CCCCC1 — within 1.5-fold, 1060 nM
- O=S(=O)(Nc1cccc(CCN2CCCCC2CCN2CCCC2)c1)c1cccc2ccccc12 (stereo not drawn) — within 1.5-fold, 820 nM
- COc1ccc2nccc([C@@H](O)CN3CCC(NC(=O)c4ccc5nc(-n6cccc6)sc5c4)CC3)c2c1 — within 1.5-fold, 1000 nM
- O=S(=O)(NCCN1CCCC1)c1cccc(-c2ccc(CNC3Cc4ccccc4C3)cc2)c1 — within 1.5-fold, 660 nM
- Cc1cccc2[nH]c(-c3ccc(-c4cccc(NC(=O)NCc5cccc(F)c5)c4)cc3)nc12 — within 1.5-fold, 850 nM
- Cn1ccc(-c2cccc(Nc3ccnc4cc(-c5nccs5)ccc34)c2)n1 — 2-fold lower, 410 nM
- COc1c(C2CCN(CCCCNC(=O)c3ccc(-c4ccc(Cl)cc4)c(OCCN(C)C)c3)CC2)ccc2c1CCCC2 — 4.2-fold lower, 190 nM
- c1ccc2c(CNc3nc(NCC4CCCCC4)nc4nc[nH]c34)cccc2c1 — within 1.5-fold, 890 nM
- O=C(Nc1ccc(OC2CCN(Cc3ccc(F)cc3)C2)c(Cl)c1)c1ccco1 (stereo not drawn) — 4.2-fold lower, 190 nM
- CCOc1cc2ncnc(Nc3ccc(OCc4ccccc4Br)c(OC)c3)c2cc1OCC — 1.7-fold lower, 470 nM
- Cc1cccc2[nH]c(-c3ccc(-c4cccc(C(=O)NCCN5CCCC5)c4)s3)nc12 — within 1.5-fold, 1140 nM
- CN(CCCN(C)c1cc(NC(=O)c2ccc(F)cc2)ccn1)Cc1cccc(O)c1 — 1.5-fold higher, 1210 nM
- COc1ccc(CNCc2ccccc2)cc1-c1cccc(S(=O)(=O)NCCN2CCCC2)c1 — within 1.5-fold, 790 nM
- Cc1cc(-c2ccc3c(c2)CC[C@@H](N[C@@H](C)c2ccccc2)C3)cnc1N — 2.2-fold higher, 1730 nM
- CCOc1ccc(-c2nonc2NC(=O)c2ccc(OC)cc2)cc1OCC — within 1.5-fold, 820 nM
- CCNc1cc(C(=O)N[C@@H](Cc2ccccc2)[C@H](O)CNCc2cc(C#N)ccc2OC)cc(N2CCCC2=O)c1 — 1.5-fold higher, 1230 nM
- Cc1ccc(C2CC(c3cccs3)=NN2C(=O)c2ccc(Br)o2)cc1 (stereo not drawn) — within 1.5-fold, 890 nM
- CCCC(C)NC(=O)c1cnn(-c2ccc(C(C)(C)C)cc2)c1OCc1ccc(Br)cc1 (stereo not drawn) — within 1.5-fold, 1060 nM
- COc1ccc2ncc(C#N)c(CCN3C[C@H](CNCc4ccccc4)[C@H](O)C3)c2n1 — within 1.5-fold, 1060 nM
- CCOc1ccc2c(NN=Cc3c4ccccc4cc4ccccc34)cc(C)nc2c1 — within 1.5-fold, 1070 nM
- O=C(/C=C/c1ccc(Cl)c(Cl)c1)NCCCCCN1CCC(NC(=S)Nc2ccc(F)cc2F)CC1 — within 1.5-fold, 810 nM
- Cc1cc(N[C@@H](Cc2ccccc2)C(=O)NCc2cccc(F)c2)nc(Nc2ccccc2)n1 — within 1.5-fold, 930 nM
- CCOC(=O)c1cn(CC)c2cc(N(C)CCc3ccc(OC)c(OC)c3)c(F)cc2c1=O — 1.9-fold lower, 430 nM
- Cc1cccc(-c2cc3cc(Nc4ccnc5cc(-c6nccs6)ccc45)ccc3[nH]2)c1 — 4.7-fold lower, 170 nM
- COc1cccc(C2CCN(CCN3CCC(CNC(=O)c4ccc(-c5ccc(C(F)(F)F)cc5)cc4)CC3)CC2)c1 — within 1.5-fold, 890 nM
- O=C(Nc1ccc(Cn2nc(Cl)c(N3CCCNCC3)cc2=O)cc1)c1ccc(-c2ccccc2)cc1 — within 1.5-fold, 710 nM
- O=C1CCCN1CCCNCc1cccc(-c2ccc(-c3nc4ccc(C(F)(F)F)cc4[nH]3)s2)c1 — 1.8-fold lower, 450 nM
- CC(=O)Nc1nc(C(=O)Nc2ccc(-c3cccc(-c4nc5ccc(F)cc5[nH]4)c3)cc2)cs1 — 2.8-fold lower, 290 nM
- Cc1cc(N2CCOCC2)nc2ccc(NC(=O)c3cccc([N+](=O)[O-])c3)cc12 — within 1.5-fold, 890 nM
- CCCCCCCN(Cc1ccc(OC(C)(C)C(=O)OCC)cc1)C(=O)Nc1ccccc1OCC — within 1.5-fold, 1030 nM
- O=C(/C=C/c1ccc(Cl)c(Cl)c1)NCCCCCN1CCC(NC(=O)Nc2ccc(F)c(F)c2)CC1 — within 1.5-fold, 840 nM
